The record followed here is patent publication US10714208B2, “Computer systems for treating diseases” (Biotempus Limited, priority 2009, dated 2020).

The assay relates to metastatic melanoma. Description: Pilot clinical study: temozolomide chemotherapy timed relative to the CRP oscillation cycle. It counts as in vivo, human. On the procedure: A pilot clinical study was conducted on 12 patients with metastatic melanoma (median age 61; 4 female; 7 with M1c disease) at The Mayo Clinic, Rochester, Minn., USA headed by Dr Svetomir Markovic. Serial CRP measurements were taken every 2-3 days for 2 weeks. The CRP oscillation cycle was identified by analysis of the raw data without any computer aided modelling, and chemotherapy with temozolomide (200 mg/m2 for 5 days, every 28 days) was initiated. Patients were evaluated for clinical and immune response endpoints every 8 weeks until progression.

Turning to `Cn1nnc2c(C(N)=O)ncn2c1=O` [temozolomide], the time to progression (the other patients, treated post CRP-peak) is recorded as less than 5 months. Moreover, for the setting “two patients with metastatic melanoma treated in the pre-peak section of the CRP cycle, temozolomide 200 mg/m2 for 5 days, every 28 days”, the remain progression-free is recorded as more than 2 years.
